Laboratory results taken from ChEMBL document CHEMBL1125035, “Synthesis and biological activity of novel vitamin D analogues: 24,24-difluoro-25-hydroxy-26,27-dimethylvitamin D3 and 24,24-difluoro-1 alpha,25-dihydroxy-26,27-dimethylvitamin D3” (1990).

Experiments:
Rattus norvegicus [1] = assay: Ability to stimulate intestinal-calcium transport by the administration of compound in rats at a concentration of 50 pmol at 4 hr.; assay type: functional, Intestine
Rattus norvegicus [2] = assay: Ability to mobilize Bone-Calcium transport, following the administration of compound in rats at a concentration of 5 pmol at 4 hr.; assay type: functional, organism-based
Rattus norvegicus [3] = assay: Ability to mobilize Bone-Calcium transport, following the administration of compound in rats at a concentration of 5 pmol at 72 hr.; assay type: functional, organism-based
Rattus norvegicus [4] = assay: Ability to stimulate intestinal-calcium transport by the administration of compound in rats at a concentration of 5000 pmol at 24 hr.; assay type: functional, Intestine
Rattus norvegicus [5] = assay: Ability to mobilize Bone-Calcium transport, following the administration of compound in rats at a concentration of 5000 pmol at 4 hr.; assay type: functional, organism-based
Rattus norvegicus [6] = assay: Ability to mobilize Bone-Calcium transport, following the administration of compound in rats at a concentration of 500 pmol at 13 hr.; assay type: functional, organism-based
Rattus norvegicus [7] = assay: Ability to mobilize Bone-Calcium transport, following the administration of compound in rats at a concentration of 500 pmol at 24 hr.; assay type: functional, organism-based
Rattus norvegicus [8] = assay: Ability to mobilize Bone-Calcium transport, following the administration of compound in rats at a concentration of 500 pmol at 2 hr.; assay type: functional, organism-based
Rattus norvegicus [9] = assay: Ability to mobilize Bone-Calcium transport, following the administration of compound in rats at a concentration of 500 pmol at 4 hr.; assay type: functional, organism-based
Rattus norvegicus [10] = assay: Ability to mobilize Bone-Calcium transport, following the administration of compound in rats at a concentration of 50 pmol at 24 hr.; assay type: functional, organism-based
Rattus norvegicus [11] = assay: Ability to mobilize Bone-Calcium transport, following the administration of compound in rats at a concentration of 50 pmol at 2 hr.; assay type: functional, organism-based
Rattus norvegicus [12] = assay: Ability to mobilize Bone-Calcium transport, following the administration of compound in rats at a concentration of 50 pmol at 4 hr.; assay type: functional, organism-based
Rattus norvegicus [13] = assay: Ability to mobilize Bone-Calcium transport, following the administration of compound in rats at a concentration of 5 pmol at 24 hr.; assay type: functional, organism-based
Rattus norvegicus [14] = assay: Ability to mobilize Bone-Calcium transport, following the administration of compound in rats at a concentration of 5 pmol at 2 hr.; assay type: functional, organism-based
Rattus norvegicus [15] = assay: Ability to stimulate intestinal-calcium transport by the administration of compound in rats at a concentration of 5 pmol at 24 hr.; assay type: functional, Intestine
Rattus norvegicus [16] = assay: Ability to stimulate intestinal-calcium transport by the administration of compound in rats at a concentration of 5 pmol at 2 hr.; assay type: functional, Intestine
Rattus norvegicus [17] = assay: Ability to stimulate intestinal-calcium transport by the administration of compound in rats at a concentration of 5 pmol at 4 hr.; assay type: functional, Intestine
Rattus norvegicus [18] = assay: Ability to stimulate intestinal-calcium transport by the administration of compound in rats at a concentration of 50 pmol at 13 hr.; assay type: functional, Intestine
Rattus norvegicus [19] = assay: Ability to stimulate intestinal-calcium transport by the administration of compound in rats at a concentration of 50 pmol at 24 hr.; assay type: functional, Intestine
Rattus norvegicus [20] = assay: Ability to stimulate intestinal-calcium transport by the administration of compound in rats at a concentration of 5000 pmol at 2 hr.; assay type: functional, Intestine
Rattus norvegicus [21] = assay: Ability to stimulate intestinal-calcium transport by the administration of compound in rats at a concentration of 5000 pmol at 4 hr.; assay type: functional, Intestine
Rattus norvegicus [22] = assay: Ability to stimulate intestinal-calcium transport by the administration of compound in rats at a concentration of 500 pmol at 24 hr.; assay type: functional, Intestine
Rattus norvegicus [23] = assay: Ability to stimulate intestinal-calcium transport by the administration of compound in rats at a concentration of 500 pmol at 2 hr.; assay type: functional, Intestine
Rattus norvegicus [24] = assay: Ability to stimulate intestinal-calcium transport by the administration of compound in rats at a concentration of 500 pmol at 4 hr.; assay type: functional, Intestine
Rattus norvegicus [25] = assay: Ability to mobilize Bone-Calcium transport, following the administration of compound in rats at a concentration of 5000 pmol at 24 hr.; assay type: functional, organism-based
Rattus norvegicus [26] = assay: Ability to mobilize Bone-Calcium transport, following the administration of compound in rats at a concentration of 5000 pmol at 2 hr.; assay type: functional, organism-based
Gallus gallus = species on record: Gallus gallus; assay: Bind to chick intestinal Vitamin D3 receptor for 1,25-(OH)2-D3
[27] = target: T1, Vitamin D-binding protein (Rattus norvegicus) (UniProt P04276); assay: Displacement of [3H]25-(OH)-D3 from rat plasma Vitamin D binding protein; assay type: cell-free
T1 sequence (whole entry): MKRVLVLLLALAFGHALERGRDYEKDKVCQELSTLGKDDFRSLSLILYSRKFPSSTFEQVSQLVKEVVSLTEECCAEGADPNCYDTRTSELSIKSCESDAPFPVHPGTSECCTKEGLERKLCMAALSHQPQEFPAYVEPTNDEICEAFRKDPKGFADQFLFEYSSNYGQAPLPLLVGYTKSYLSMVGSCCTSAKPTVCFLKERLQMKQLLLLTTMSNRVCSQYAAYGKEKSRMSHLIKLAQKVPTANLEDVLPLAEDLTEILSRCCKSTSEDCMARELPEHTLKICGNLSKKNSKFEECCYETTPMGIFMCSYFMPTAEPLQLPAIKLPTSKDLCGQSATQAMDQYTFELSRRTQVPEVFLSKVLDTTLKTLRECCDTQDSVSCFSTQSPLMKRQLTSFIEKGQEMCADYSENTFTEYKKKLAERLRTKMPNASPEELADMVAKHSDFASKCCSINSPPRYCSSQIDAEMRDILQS

Rattus norvegicus [28] = assay: Ability to mobilize Bone-Calcium transport, following the administration of compound in rats at a concentration of 5 pmol at 13 hr.; assay type: functional, organism-based
Rattus norvegicus [29] = assay: Ability to stimulate intestinal-calcium transport by the administration of compound in rats at a concentration of 50 pmol at 2 hr.; assay type: functional, Intestine
Rattus norvegicus [30] = assay: Ability to mobilize Bone-Calcium transport, following the administration of compound in rats at a concentration of 500 pmol at 48 hr.; assay type: functional, organism-based
Rattus norvegicus [31] = assay: Ability to mobilize Bone-Calcium transport, following the administration of compound in rats at a concentration of 50 pmol at 48 hr.; assay type: functional, organism-based
Rattus norvegicus [32] = assay: Ability to mobilize Bone-Calcium transport, following the administration of compound in rats at a concentration of 50 pmol at 69 hr.; assay type: functional, organism-based
Rattus norvegicus [33] = assay: Ability to stimulate intestinal-calcium transport by the administration of compound in rats at a concentration of 5 pmol at 12 hr.; assay type: functional, Intestine
Rattus norvegicus [34] = assay: Ability to stimulate intestinal-calcium transport by the administration of compound in rats at a concentration of 5 pmol at 48 hr.; assay type: functional, Intestine
Rattus norvegicus [35] = assay: Ability to stimulate intestinal-calcium transport by the administration of compound in rats at a concentration of 50 pmol at 12 hr.; assay type: functional, Intestine
Rattus norvegicus [36] = assay: Ability to stimulate intestinal-calcium transport by the administration of compound in rats at a concentration of 500 pmol at 48 hr.; assay type: functional, Intestine
Rattus norvegicus [37] = assay: Ability to mobilize Bone-Calcium transport, following the administration of compound in rats at a concentration of 5000 pmol at 12 hr.; assay type: functional, organism-based

Row | Structure (SMILES) | Serosal/Mucosal Ca (Rattus norvegicus [1]) | Serum Ca2+ (Rattus norvegicus [2]) [mg/dL] | Serosal/Mucosal Ca (Rattus norvegicus [4]) | Serum Ca2+ (Rattus norvegicus [5]) [mg/dL] | Serum Ca2+ (Rattus norvegicus [7]) [mg/dL] | Serum Ca2+ (Rattus norvegicus [8]) [mg/dL] | Serum Ca2+ (Rattus norvegicus [9]) [mg/dL] | Serum Ca2+ (Rattus norvegicus [10]) [mg/dL] | Serum Ca2+ (Rattus norvegicus [11]) [mg/dL] | Serum Ca2+ (Rattus norvegicus [12]) [mg/dL] | Serum Ca2+ (Rattus norvegicus [13]) [mg/dL] | Serum Ca2+ (Rattus norvegicus [14]) [mg/dL] | Serosal/Mucosal Ca (Rattus norvegicus [15]) | Serosal/Mucosal Ca (Rattus norvegicus [16]) | Serosal/Mucosal Ca (Rattus norvegicus [17]) | Serosal/Mucosal Ca (Rattus norvegicus [19]) | Serosal/Mucosal Ca (Rattus norvegicus [20]) | Serosal/Mucosal Ca (Rattus norvegicus [21]) | Serosal/Mucosal Ca (Rattus norvegicus [22]) | Serosal/Mucosal Ca (Rattus norvegicus [23]) | also measured
1 | C=C1CC[C@H](O)C/C1=C/C=C1\CCC[C@]2(C)[C@@H]([C@H](C)CCC(F)(F)C(O)(CC)CC)CC[C@@H]12 | 1.97 | 4.38 | 8.65 | 4.56 | 5.1 | 4.22 | 4.4 | 4.72 | 4.28 | 4.18 | 4.9 | 4.4 | 2.34 | 1.89 | 1.61 | 6.16 | 3.77 | 3.18 | 7.11 | 2.58 | Serum Ca2+ (Rattus norvegicus [3]): 4.2 mg/dL; Serum Ca2+ (Rattus norvegicus [6]): 5.14 mg/dL; Serosal/Mucosal Ca (Rattus norvegicus [18]): 2.18; Serosal/Mucosal Ca (Rattus norvegicus [24]): 2.27; Serum Ca2+ (Rattus norvegicus [25]): 5.9 mg/dL; Serum Ca2+ (Rattus norvegicus [26]): 4.78 mg/dL; B50 (Gallus gallus): 52.8 nM; B50 [27]: 25.8 nM; Serum Ca2+ (Rattus norvegicus [28]): 4.2 mg/dL; Serosal/Mucosal Ca (Rattus norvegicus [29]): 1.8
2 | C=C1/C(=C\C=C2/CCC[C@]3(C)[C@@H]([C@H](C)CCC(F)(F)C(O)(CC)CC)CC[C@@H]23)C[C@@H](O)C[C@@H]1O | 4.22 | 4.28 | 5.32 | 5.48 | 5.58 | 4.8 | 5.1 | 4.74 | 4.42 | 5 | 4.38 | 4.5 | 2.14 | 2.08 | 3.36 | 3.93 | 3.7 | 4.84 | 7.3 | 4.55 | Serum Ca2+ (Rattus norvegicus [30]): 4.94 mg/dL; Serum Ca2+ (Rattus norvegicus [31]): 4.08 mg/dL; Serum Ca2+ (Rattus norvegicus [32]): 4.02 mg/dL; Serosal/Mucosal Ca (Rattus norvegicus [33]): 2.85; Serosal/Mucosal Ca (Rattus norvegicus [34]): 2.09; Serosal/Mucosal Ca (Rattus norvegicus [35]): 4.41; Serosal/Mucosal Ca (Rattus norvegicus [36]): 5.39; Serosal/Mucosal Ca (Rattus norvegicus [24]): 6.44; Serum Ca2+ (Rattus norvegicus [37]): 6.4 mg/dL; Serum Ca2+ (Rattus norvegicus [25]): 6.36 mg/dL; Serum Ca2+ (Rattus norvegicus [26]): 5.1 mg/dL; B50 (Gallus gallus): 0.495 nM; B50 [27]: 2200 nM; Serosal/Mucosal Ca (Rattus norvegicus [29]): 2.27
3 | C=C1CC[C@H](O)C/C1=C/C=C1\CCC[C@]2(C)[C@@H]([C@H](C)CCCC(C)(C)O)CC[C@@H]12 [CALCIFEDIOL ANHYDROUS] | 2.17 | 4.14 | 7.19 | 4.12 | 5.5 | 4.66 | 4.22 | 5.06 | 4.48 | 4.1 | 4.34 | 4.32 | 2.84 | 2.03 | 2.42 | 4.8 | 2.93 | 3.31 | 7.19 | 2.22 | Serum Ca2+ (Rattus norvegicus [3]): 4.32 mg/dL; Serum Ca2+ (Rattus norvegicus [6]): 6.22 mg/dL; Serosal/Mucosal Ca (Rattus norvegicus [18]): 3.75; Serosal/Mucosal Ca (Rattus norvegicus [24]): 2.83; Serum Ca2+ (Rattus norvegicus [25]): 5.82 mg/dL; Serum Ca2+ (Rattus norvegicus [26]): 4.64 mg/dL; B50 (Gallus gallus): 282 nM; B50 [27]: 3.77 nM; Serum Ca2+ (Rattus norvegicus [28]): 4.4 mg/dL; Serosal/Mucosal Ca (Rattus norvegicus [29]): 1.75
4 | C=C1/C(=C\C=C2/CCC[C@]3(C)[C@@H]([C@H](C)CCCC(C)(C)O)CC[C@@H]23)C[C@@H](O)C[C@@H]1O [CALCITRIOL] | 5.09 | 4.32 | 4.71 | 5.6 | 4.98 | 4.76 | 5.32 | 5 | 4.35 | 4.58 | 4.58 | 4.4 | 2.95 | 2.21 | 2.53 | 4.34 | 3.12 | 7.66 | 3.5 | 3.1 | Serum Ca2+ (Rattus norvegicus [30]): 4.35 mg/dL; Serum Ca2+ (Rattus norvegicus [31]): 4.54 mg/dL; Serum Ca2+ (Rattus norvegicus [32]): 4.55 mg/dL; Serosal/Mucosal Ca (Rattus norvegicus [33]): 2.62; Serosal/Mucosal Ca (Rattus norvegicus [34]): 3.19; Serosal/Mucosal Ca (Rattus norvegicus [35]): 3.23; Serosal/Mucosal Ca (Rattus norvegicus [36]): 5.98; Serosal/Mucosal Ca (Rattus norvegicus [24]): 6.6; Serum Ca2+ (Rattus norvegicus [37]): 6.14 mg/dL; Serum Ca2+ (Rattus norvegicus [25]): 5.5 mg/dL; Serum Ca2+ (Rattus norvegicus [26]): 4.84 mg/dL; B50 (Gallus gallus): 0.0725 nM; B50 [27]: 45.3 nM; Serosal/Mucosal Ca (Rattus norvegicus [29]): 2.5
